Molecules are shown by their SMILES.

Data set [1] deals with Lymphocytic leukemia P-388. The experiment in a line: In vivo antitumor activity, murine lymphocytic leukemia P-388. The following applies: BDF1-SLC mice, i.p. transplant, once daily for 9 days, 30 days observation; T/C more than 130 effective. The procedure:
The following data with respect to the testing of a group of the presently claimed substances in vivo according to a standard test method involving murine lymphocytic leukemia P-388 is presented to lend further assurance as to the utility of the compounds as inhibitors of mammalian tumors.
Lymphocytic leukemia P-388 cells (1×10^5 /0.2 ml) were transplanted intraperitoneally into male BDF1 -SLC mice (5 mice/group). Each of the compounds of this invention was diluted with physiological saline to various concentrations. Each dilution was administered at a dose of 0.1 ml/10 g of body weight once daily for 9 days, starting on the day after the day of the transplantation. The mice of the control group were administered physiological saline.
The average number of days that the group receiving the compound of this invention survived was calculated. The figure obtained was divided by the average number of survival days for the control group, and was multiplied by 100 (T/C (%)).
T/C value more than 130 was considered to be effective.

Data set [2] relates to Hela S3 cells. The experiment in a line: Growth inhibitory activity against Hela S3 cells. Format: cell-based. The following applies: Cu-free form; Hela S3, 3 days incubation with compound. The procedure:
The percentage growth inhibition was calculated using the equation: […] wherein A is the ultimate number of cells on the third day from the addition of a test sample, B is the ultimate number of cells in the control (without the addition of test sample), and C is the number of cells on the day of addition of the test sample.

The next data set concerns ICR strain mice. Nature of the data set: Pulmonary toxicity (pulmonary fibrosis) in mice, intraperitoneal injection. The data set is classed as in vivo. The following applies: 5 mg/kg i.p. once a day for 10 days; for Grade of pulmonary fibrosis, % / Incidence of pulmonary fibrosis, % / Incidence: number of mice suffering from pulmonary fibrosis / Grade: total score of pulmonary fibrosis/total number of test animal: autopsy after 5 weeks; for Incidence: number of mice suffering from pulmonary fibrosis: affected/total mice; for Grade: total score of pulmonary fibrosis/total number of test animal: score 0-6 points; for Grade of pulmonary fibrosis, Ratio / Incidence of pulmonary fibrosis, Ratio: reference of the ratio not stated. In a few lines: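 Male ICR mice, 15 weeks old, 9 per group, received 5 mg/kg intraperitoneally once daily for 10 days. They were autopsied after 5 weeks' observation for pulmonary fibrosis incidence and grade: 1, alveolar exudate/septal fibrosis-like change; 2, fibrosis in several areas; 4, scattered fibrosis; 6, fibrosis over >2/3 of area.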

Data set [3] deals with Mycobacterium smegmatis ATCC 607. Nature of the data set: Antimicrobial activity, agar plate-cylinder method. Format: cell-based. The following applies: Cu-free form; bleomycin A2 (Cu-free form) standard assumed 1,000 mcg/mg. The procedure:
(§1) The activity was assayed against the above test microorganisms by the method of agar plate-cylinder, assuming the potency of bleomycin A2 (Cu-free form), used as standard, to be 1,000 mcg/mg.

In data set [4] the test system is CDF1 /SLC strain male mice. Nature of the data set: Acute toxicity, LD50 on 10 consecutive days. Format: in vivo. The following applies: subcutaneous, Behrens-Karber method. The procedure: LD50 was assayed by administering several representative compounds of this invention for 10 consecutive days.
CDF1 /SLC strain male mice (each 6 weeks old, 7 members per group) were subcutaneously administered with various compounds of this invention, the dose being different with each compound. LD50 (daily dose) was estimated from the mortality during the administration period by the Behrens-Karber method.

In the next data set the test system is Bacillus subtilis. Nature of the data set: Antimicrobial activity, agar plate-cylinder method. The data set is classed as cell-based. The following applies: Cu-free form; bleomycin A2 (Cu-free form) standard assumed 1,000 mcg/mg. The procedure:
(1) Antimicrobial activity against Mycobacterium smegmatis ATCC 697 and Bacillus subtilis.
as §1

Data set [5] relates to Hela S3 cells. The following applies: background statement; cited from earlier work.
A further data set relates to ICR mice. The experiment in a line: Pulmonary toxicity (pulmonary fibrosis) in mice, intratracheal instillation. The data set is classed as in vivo. The following applies: 16 μg/50 μl/mouse intratracheally, sacrificed 4 weeks after instillation.

As for `Cc1c(N)nc(C(CC(N)=O)NCC(N)C(N)=O)nc1C(=O)NC(C(=O)NC(C)C(O)C(C)C(=O)NC(C(=O)NCCc1nc(-c2nc(C(=O)NCCCN3CCN(CCCN(Cc4ccccc4)Cc4ccccc4)CC3)cs2)cs1)C(C)O)C(OC1OC(CO)C(O)C(O)C1OC1OC(CO)C(O)C(OC(N)=O)C1O)c1cnc[nH]1` (centres unmarked) [Compound No. 43], in data set [1], the “Max. T/C on Mouse Lymphocytic Leukemia P 388” value is reported as 182%. In addition, in the data set on Hela S3 cells [2], the “50% growth inhibition concentration (ID50) of Cu--free compound against cultured Hela cell” value turned out to be 0.50 µg/mL. For the same compound, in the data set on ICR strain mice, the “Grade of pulmonary fibrosis, %” value was 0%; the “Incidence of pulmonary fibrosis, %” value is 0%; the “Incidence: number of mice suffering from pulmonary fibrosis” value (“Incidence: number of mice suffering” for short) is given as 0/9; the “Grade: total score of pulmonary fibrosis/total number of test animal” value is recorded as 0/27. Further, in the data set with ICR strain mice, the “Grade of pulmonary fibrosis, Ratio” value amounted to 0.00 and the “Incidence of pulmonary fibrosis, Ratio” value is on record as 0.00. Further, in data set [3], the “Antimicrobial potency of Cu--free compound, against Mycobacterium smegmatis ATCC 607” value was found to be 14420 mcg potency per mg. Besides, the “LD50 (daily dose)” value in data set [4] is 12.5 mg/kg/day. Moreover, the “Antimicrobial potency of Cu--free compound, against Bacillus subtilis” value in the data set with Bacillus subtilis worked out at 1230 mcg potency per mg.
Consider `Cc1c(N)nc(C(CC(N)=O)NCC(N)C(N)=O)nc1C(=O)NC(C(=O)NC(C)C(O)C(C)C(=O)NC(C(=O)NCCc1nc(-c2nc(C(=O)NCCCN(C)CCCNCC3CCCCCCCCCC3)cs2)cs1)C(C)O)C(OC1OC(CO)C(O)C(O)C1OC1OC(CO)C(O)C(OC(N)=O)C1O)c1cnc[nH]1` (centres unmarked) [Compound No. 32, 3-{N--Methyl-N--[3'-(cycloundecanylmethylamino)propyl]amino}propylaminoBLM], for which, in data set [1], the “Max. T/C on Mouse Lymphocytic Leukemia P 388” value stood at 166%. Besides, the “50% growth inhibition concentration (ID50) of Cu--free compound against cultured Hela cell” value with Hela S3 cells [2] stood at 0.58 µg/mL. In addition, in the data set on ICR strain mice, the “Grade of pulmonary fibrosis, %” value came to 0%; the “Incidence of pulmonary fibrosis, %” value is 0%; the “Incidence: number of mice suffering” value is 0/9; the “Grade: total score of pulmonary fibrosis/total number of test animal” value is listed as 0/27. Also, in the data set with ICR strain mice, the “Grade of pulmonary fibrosis, Ratio” value was found to be 0.00 and the “Incidence of pulmonary fibrosis, Ratio” value was determined as 0.00. Besides, in data set [3], the “Antimicrobial potency of Cu--free compound, against Mycobacterium smegmatis ATCC 607” value was 28308 mcg potency per mg. The “LD50 (daily dose)” value in data set [4] came to 17.5 mg/kg/day. Moreover, in the data set on Bacillus subtilis, the “Antimicrobial potency of Cu--free compound, against Bacillus subtilis” value stood at 8146 mcg potency per mg.
Consider `Cc1c(N)nc(C(CC(N)=O)NCC(N)C(N)=O)nc1C(=O)NC(C(=O)NC(C)C(O)C(C)C(=O)NC(C(=O)NCCc1nc(-c2nc(C(=O)NCCCN(C)CCCN)cs2)cs1)C(C)O)C(OC1OC(CO)C(O)C(O)C1OC1OC(CO)C(O)C(OC(N)=O)C1O)c1cnc[nH]1` (centres unmarked) [APMP, 3-[N-(3-aminopropyl)-N-methylamino]propylaminobleomycin, reference compound], for which, in the data set on ICR strain mice, the “Grade of pulmonary fibrosis, %” value is 0%; the “Incidence of pulmonary fibrosis, %” value was found to be 100%; the “Incidence: number of mice suffering” value was 9/9; the “Grade: total score of pulmonary fibrosis/total number of test animal” value is on record as 48/27. For the same compound, in the data set on ICR strain mice, the “Grade of pulmonary fibrosis, Ratio” value was 2.15 and the “Incidence of pulmonary fibrosis, Ratio” value is listed as 1.6. The “Growth inhibition of Hela Cell (in words)” value with Hela S3 cells [5] was “strongly inhibits”.
For the compound `CC[N+](CC)(CCCNC(=O)c1csc(-c2csc(CCNC(=O)C(NC(=O)C(C)C(O)C(C)NC(=O)C(NC(=O)c3nc(C(CC(N)=O)NCC(N)C(N)=O)nc(N)c3C)C(OC3OC(CO)C(O)C(O)C3OC3OC(CO)C(O)C(OC(N)=O)C3O)c3cnc[nH]3)C(C)O)n2)n1)CCCN(Cc1ccccc1)Cc1ccccc1` (centres unmarked) [Compound No. 37, 3-[N,N-diethyl-N-(3'-dibenzylamino)propyl]aminopropylaminobleomycin], in data set [1], the “Max. T/C on Mouse Lymphocytic Leukemia P 388” value is on record as 168%. Further, in the data set on Hela S3 cells [2], the “50% growth inhibition concentration (ID50) of Cu--free compound against cultured Hela cell” value was 0.70 µg/mL. In addition, the “Antimicrobial potency of Cu--free compound, against Mycobacterium smegmatis ATCC 607” value in data set [3] is recorded as 10680 mcg potency per mg. Also, the “LD50 (daily dose)” value in data set [4] worked out at 50.0 mg/kg/day. For the same compound, in the data set on Bacillus subtilis, the “Antimicrobial potency of Cu--free compound, against Bacillus subtilis” value is reported as 1047 mcg potency per mg.
For the compound `Cc1c(N)nc(C(CC(N)=O)NCC(N)C(N)=O)nc1C(=O)NC(C(=O)NC(C)C(O)C(C)C(=O)NC(C(=O)NCCc1nc(-c2nc(C(=O)NCCCN(C)CCCN(Cc3ccc(OCc4ccccc4)c(OCc4ccccc4)c3)Cc3ccc(OCc4ccccc4)c(OCc4ccccc4)c3)cs2)cs1)C(C)O)C(OC1OC(CO)C(O)C(O)C1OC1OC(CO)C(O)C(OC(N)=O)C1O)c1cnc[nH]1` (centres unmarked) [Compound No. 34, 3-{N--Methyl-N--[3'-(bis(m,p-dibenzyloxybenzyl)amino)propyl]amino}propylaminoBLM], the “Max. T/C on Mouse Lymphocytic Leukemia P 388” value in data set [1] was determined as 205%. Further, the “50% growth inhibition concentration (ID50) of Cu--free compound against cultured Hela cell” value in the data set with Hela S3 cells [2] stood at 0.38 µg/mL. Also, in the data set with ICR strain mice, the “Grade of pulmonary fibrosis, %” value was 0%; the “Incidence of pulmonary fibrosis, %” value is 0%; the “Incidence: number of mice suffering” value was 0/9; the “Grade: total score of pulmonary fibrosis/total number of test animal” value is reported as 0/27. Also, in the data set on ICR strain mice, the “Grade of pulmonary fibrosis, Ratio” value stood at 0.00 and the “Incidence of pulmonary fibrosis, Ratio” value is on record as 0.00. Moreover, in data set [3], the “Antimicrobial potency of Cu--free compound, against Mycobacterium smegmatis ATCC 607” value came out at 164 mcg potency per mg. Besides, the “LD50 (daily dose)” value in data set [4] was 60.0 mg/kg/day. In the data set on Bacillus subtilis, the “Antimicrobial potency of Cu--free compound, against Bacillus subtilis” value was 49 mcg potency per mg.
In the case of `Cc1c(N)nc(C(CC(N)=O)NCC(N)C(N)=O)nc1C(=O)NC(C(=O)NC(C)C(O)C(C)C(=O)NC(C(=O)NCCc1nc(-c2nc(C(=O)NCCC[N+](C)(CCCN(Cc3ccccc3)Cc3ccccc3)Cc3ccccc3)cs2)cs1)C(C)O)C(OC1OC(CO)C(O)C(O)C1OC1OC(CO)C(O)C(OC(N)=O)C1O)c1cnc[nH]1` (centres unmarked) [compound 39, 3-{N--Methyl-N--benzyl-N--[3'-(dibenzylamino)propyl]amino}propylaminoBLM], the “Max. T/C on Mouse Lymphocytic Leukemia P 388” value in data set [1] stood at 163%. Also, the “50% growth inhibition concentration (ID50) of Cu--free compound against cultured Hela cell” value with Hela S3 cells [2] came to 2.30 µg/mL. Moreover, in the data set with ICR mice, the “Grade of pulmonary fibrosis, %” value is given as 15%; the “Incidence of pulmonary fibrosis, %” value stood at 22%; the “Incidence: number of mice with pulmonary fibrosis/number of mice” value is reported as 2/9. The “Grade: total score of pulmonary fibrosis/total number of samples” value in the data set on ICR mice (score 0-6 points) was 4/27. Moreover, in the data set with ICR strain mice, the “Grade of pulmonary fibrosis, %” value amounted to 0%; the “Incidence of pulmonary fibrosis, %” value is reported as 0%; the “Incidence: number of mice suffering” value is 0/9; the “Grade: total score of pulmonary fibrosis/total number of test animal” value was 0/27. Also, in the data set on ICR strain mice, the “Grade of pulmonary fibrosis, Ratio” value turned out to be 0.00 and the “Incidence of pulmonary fibrosis, Ratio” value came to 0.00. Further, the “Antimicrobial potency of Cu--free compound, against Mycobacterium smegmatis ATCC 607” value in data set [3] is given as 7746 mcg potency per mg. Further, the “Antimicrobial potency of Cu--free compound, against Bacillus subtilis” value with Bacillus subtilis turned out to be 580 mcg potency per mg.

(Values after patent publication US4568490A, “Aminopropylaminobleomycin derivatives and process for preparation thereof” (Zaidan Hojin Biseibutsu Kagaku Kenkyu Kai, priority 1981, dated 1986).)
